Results from US9067871B2, “Aminotetraline derivatives, pharmaceutical compositions containing them, and their use in therapy” (ABBVIE DEUTSCHLAND GMBH & CO KG, priority 2009, dated 2015).
Counter-ions that a name gives are not always drawn.

molecular target: human GlyT1c transporter (Homo sapiens (Human), UniProt P48067); assay: Radioligand binding assay using recombinant CHO cell membranes expressing human GlyT1; settings: human GlyT1c-expressing CHO cell membranes; read-out: radioligand binding Kiapp
Sequence (P48067 whole entry): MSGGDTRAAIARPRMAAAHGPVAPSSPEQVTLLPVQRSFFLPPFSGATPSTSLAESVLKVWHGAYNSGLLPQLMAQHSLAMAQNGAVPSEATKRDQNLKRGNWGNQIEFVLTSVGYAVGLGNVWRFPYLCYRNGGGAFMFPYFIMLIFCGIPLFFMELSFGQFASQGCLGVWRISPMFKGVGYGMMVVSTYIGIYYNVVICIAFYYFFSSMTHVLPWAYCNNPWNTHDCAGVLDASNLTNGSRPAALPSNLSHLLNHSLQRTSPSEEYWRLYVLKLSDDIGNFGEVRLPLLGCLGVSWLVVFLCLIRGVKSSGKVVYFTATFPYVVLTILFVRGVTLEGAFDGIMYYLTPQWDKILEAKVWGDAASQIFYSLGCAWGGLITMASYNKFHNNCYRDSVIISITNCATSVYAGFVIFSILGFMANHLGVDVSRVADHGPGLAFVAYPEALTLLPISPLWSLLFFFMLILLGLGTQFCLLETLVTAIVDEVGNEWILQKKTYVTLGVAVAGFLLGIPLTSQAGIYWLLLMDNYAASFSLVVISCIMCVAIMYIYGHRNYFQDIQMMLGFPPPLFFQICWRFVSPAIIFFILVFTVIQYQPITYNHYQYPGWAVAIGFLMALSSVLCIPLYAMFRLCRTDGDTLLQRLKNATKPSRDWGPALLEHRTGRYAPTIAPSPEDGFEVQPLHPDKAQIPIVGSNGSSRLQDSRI
From the text: 2. Radioligand binding assays using recombinant CHO cell membranes expressing human GlyT1: […]

| Structure (SMILES) | Ki [nM] |
| --- | --- |
| CNC1CCc2ccc(OCCNS(=O)(=O)CC3CC3)cc2C1Cc1cccc(Cl)c1 (centres unmarked) [Example 300, N-{2-[8-(3-Chloro-benzyl)-7-methylamino-5,6,7,8-tetrahydro-naphthalen-2-yloxy]-ethyl}-C-cyclopropyl-methanesulfonamide hydrochloride] | ≤ 10 |
| Cn1cnc(S(=O)(=O)NCc2ccc3c(c2)C(Cc2cccc(F)c2)C(N)CC3)c1 (centres unmarked) [Example 177, N-{[7-Amino-8-(3-fluorobenzyl)-5,6,7,8-tetrahydronaphthalen-2-yl]methyl}-1-methyl-1H-imidazole-4-sulfonamide hydrochloride] | ≤ 10 |
| CCCS(=O)(=O)NCCCc1ccc2c(c1)C(Cc1ccccc1)C(NC(C)=O)CC2 (centres unmarked) [Example 217, N-[1-Benzyl-7-{3-[(propylsulfonyl)amino]propyl}-1,2,3,4-tetrahydronaphthalen-2-yl]acetamide] | ≤ 10000 |
| CN(CCOc1ccc2c(c1)C(Cc1ccccc1)C(N)CC2)S(=O)(=O)c1cnn(C)c1 (centres unmarked) [Example 109, 1-Methyl-1H-pyrazole-4-sulfonic acid [2-(7-amino-8-benzyl-5,6,7,8-tetrahydro-naphthalen-2-yloxy)-ethyl]-methyl-amide] | ≤ 100 |
| Cn1cc(S(=O)(=O)NCCOc2ccc3c(c2)C(Cc2cccc(Cl)c2)C(N2CCCC2)CC3)cn1 (centres unmarked) [Example 318, 1-Methyl-1H-pyrazole-4-sulfonic acid {2-[8-(3-chloro-benzyl)-7-pyrrolidin-1-yl-5,6,7,8-tetrahydro-naphthalen-2-yloxy]-ethyl}-amide hydrochloride] | ≤ 10 |
| Cn1ccc(S(=O)(=O)NCc2ccc3c(c2)C(Cc2ccccc2)C(N)CC3)n1 (centres unmarked) [Example 183, N-{[7-Amino-8-benzyl-5,6,7,8-tetrahydronaphthalen-2-yl]methyl}-1-methyl-1H-pyrazole-3-sulfonamide hydrochloride] | ≤ 1000 |
| NC1CCc2ccc(OCCNS(=O)(=O)c3ccccc3)cc2C1Cc1ccccc1 (centres unmarked) [Example 99, N-[2-(7-Amino-8-benzyl-5,6,7,8-tetrahydro-naphthalen-2-yloxy)-ethyl]-benzenesulfonamide hydrochloride] | ≤ 100 |
| CN(CCOc1ccc2c(c1)C(Cc1ccc(Cl)c(Cl)c1)C(N1CCCC1)CC2)S(=O)(=O)CC1CC1 (centres unmarked) [Example 126, C-Cyclopropyl-N-{2-[8-(3,4-dichloro-benzyl)-7-pyrrolidin-1-yl-5,6,7,8-tetrahydronaphthalen-2-yloxy]-ethyl}-N-methyl-methanesulfonamide hydrochloride] | ≤ 10 |
| CNC1CCc2ccc(CNS(=O)(=O)c3ccn(C)c3)cc2C1Cc1ccccc1 (centres unmarked) [Example 190, N-{[8-Benzyl-7-(methylamino)-5,6,7,8-tetrahydronaphthalen-2-yl]methyl}-1-methyl-1H-pyrrole-3-sulfonamide hydrochloride] | ≤ 10 |
| O=S(=O)(NCc1ccc2c(c1)C(Cc1ccccc1)C(N1CCC1)CC2)c1ccccn1 (single isomer, unassigned; enantiomer 1) [Example 253, Enantiomer 1 of N-{[7-(azetidin-1-yl)-8-benzyl-5,6,7,8-tetrahydronaphthalen-2-yl]methyl}pyridine-2-sulfonamide] | ≤ 1000 |
| Cn1ccc(S(=O)(=O)NCCOc2ccc3c(c2)C(Cc2cc(F)cc(F)c2)C(NC=O)CC3)c1 (centres unmarked) [Example 271, N-(2-{[8-(3,5-Difluorobenzyl)-7-(formylamino)-5,6,7,8-tetrahydronaphthalen-2-yl]oxy}ethyl)-1-methyl-1H-pyrrole-3-sulfonamide] | ≤ 100 |
| CCN(CC)C1CCc2ccc(CCCNS(=O)(=O)CC3CC3)cc2C1Cc1ccc(Cl)cc1 (centres unmarked) [Example 274, N-{3-[8-(4-Chlorobenzyl)-7-(diethylamino)-5,6,7,8-tetrahydronaphthalen-2-yl]propyl}-1-cyclopropylmethanesulfonamide hydrochloride] | ≤ 100 |
| NC1CCc2ccc(OCCNS(=O)(=O)CC3CCC3)cc2C1Cc1ccc(Cl)c(Cl)c1 (centres unmarked) [Example 106, N-{2-[7-Amino-8-(3,4-dichloro-benzyl)-5,6,7,8-tetrahydro-naphthalen-2-yloxy]-ethyl}-Ccyclobutyl-methanesulfonamide hydrochloride] | ≤ 1000 |
| CCCS(=O)(=O)NCCCc1ccc2c(c1)C(Cc1ccccc1)C(NCC)CC2 (centres unmarked) [Example 223, N-{3-[8-Benzyl-7-(ethylamino)-5,6,7,8-tetrahydronaphthalen-2-yl]propyl}propane-1-sulfonamide hydrochloride] | ≤ 100 |
| CCN(CCOc1ccc2c(c1)C(Cc1ccc(Cl)c(Cl)c1)C(N)CC2)S(=O)(=O)c1cnn(C)c1 (centres unmarked) [Example 110, N-(2-(7-Amino-8-(3,4-dichlorobenzyl)-5,6,7,8-tetrahydronaphthalen-2-yloxy)ethyl)-N-ethyl-1-methyl-1H-pyrazole-4-sulfonamide] | ≤ 1000 |
| CN(CCCc1ccc2c(c1)C(Cc1ccc(Cl)cc1)C(N)CC2)S(=O)(=O)CC1CC1 (centres unmarked) [Example 233, N-{3-[7-Amino-8-(4-chlorobenzyl)-5,6,7,8-tetrahydronaphthalen-2-yl]propyl}-1-cyclopropylN-methylmethanesulfonamide hydrochloride] | ≤ 100 |

| Structure (SMILES) | Ki [nM] |
| --- | --- |
| NC1CCc2ccc(CNS(=O)(=O)CC3CC3)cc2C1Cc1ccc(F)c(F)c1 (centres unmarked) [Example 185, N-{[7-Amino-8-(3,4-difluorobenzyl)-5,6,7,8-tetrahydronaphthalen-2-yl]methyl}-1-cyclopropylmethanesulfonamide hydrochloride] | ≤ 1000 |
| CNC1CCc2ccc(OCCNS(=O)(=O)CC3CC3)cc2C1Cc1ccc(F)cc1 (centres unmarked) [Example 161, 1-Cyclopropyl-N-(2-{[8-(4-fluorobenzyl)-7-(methylamino)-5,6,7,8-tetrahydronaphthalen-2-yl]oxy}ethyl)methanesulfonamide] | ≤ 10 |
| CCCS(=O)(=O)NCCCc1ccc2c(c1)C(Cc1cccc(F)c1)C(NC(C)=O)CC2 (centres unmarked) [Example 214, N-[1-(3-Fluorobenzyl)-7-{3-[(propylsulfonyl)amino]propyl}-1,2,3,4-tetrahydronaphthalen-2-yl]acetamide] | ≤ 10000 |
| CNC1CCc2ccc(OCCNS(=O)(=O)CC3CC3)cc2C1Cc1cc(F)cc(Cl)c1 (centres unmarked) [Example 158, N-(2-{[8-(3-Chloro-5-fluorobenzyl)-7-(methylamino)-5,6,7,8-tetrahydronaphthalen-2-yl]oxy}ethyl)-1-cyclopropylmethanesulfonamide hydrochloride] | ≤ 10 |
| NC1CCc2ccc(CCCNS(=O)(=O)CC3CC3)cc2C1Cc1ccccc1 (centres unmarked) [Example 207, N-{3-[7-Amino-8-benzyl-5,6,7,8-tetrahydronaphthalen-2-yl]propyl}-1-cyclopropylmethanesulfonamide trifluoroacetate] | ≤ 100 |
| Cn1cc(S(=O)(=O)NCCOc2ccc3c(c2)C(Cc2ccccc2)C(N2CCC2)CC3)cn1 (centres unmarked) [Example 324, 1-Methyl-1H-pyrazole-4-sulfonic acid [2-(7-azetidin-1-yl-8-benzyl-5,6,7,8-tetrahydronaphthalen-2-yloxy)-ethyl]amide hydrochloride] | ≤ 10 |
| CCNC1CCc2ccc(CCCNS(=O)(=O)CC3CC3)cc2C1Cc1ccccc1 (centres unmarked) [Example 224, N-{3-[8-Benzyl-7-(ethylamino)-5,6,7,8-tetrahydronaphthalen-2-yl]propyl}-1-cyclopropylmethanesulfonamide hydrochloride] | ≤ 100 |
| CCCS(=O)(=O)NCCCc1ccc2c(c1)C(Cc1ccc(F)cc1)C(NCC)CC2 (centres unmarked) [Example 220, N-{3-[7-(Ethylamino)-8-(4-fluorobenzyl)-5,6,7,8-tetrahydronaphthalen-2-yl]propyl}propane-1-sulfonamide hydrochloride] | ≤ 1000 |
| CCNC1CCc2ccc(CCCNS(=O)(=O)CC3CC3)cc2C1Cc1cccc(F)c1 (centres unmarked) [Example 221, C-Cyclopropyl-N-{3-[7-ethylamino-8-(3-fluoro-benzyl)-5,6,7,8-tetrahydro-naphthalen-2-yl]-propyl}-methanesulfonamide hydrochloride] | ≤ 100 |
| Cn1cnc(S(=O)(=O)NCCOc2ccc3c(c2)C(Cc2cccc(C#N)c2)C(N2CCCC2)CC3)c1 (centres unmarked) [Example 153, N-(2-{[8-(3-Cyanobenzyl)-7-(pyrrolidin-1-yl)-5,6,7,8-tetrahydronaphthalen-2-yl]oxy}ethyl)-1-methyl-1H-imidazole-4-sulfonamide] | ≤ 100 |
| CN(CCOc1ccc2c(c1)C(Cc1ccccc1)C(N1CCC1)CC2)S(=O)(=O)c1cnn(C)c1 (centres unmarked) [Example 112, 1-Methyl-1H-pyrazole-4-sulfonic acid [2-(7-azetidin-1-yl-8-benzyl-5,6,7,8-tetrahydronaphthalen-2-yloxy)-ethyl]-methyl-amide hydrochloride] | ≤ 100 |
| Cn1cnc(S(=O)(=O)NCc2ccc3c(c2)C(Cc2ccccc2)C(N2CCC2)CC3)c1 (single isomer, unassigned; enantiomer 1) [Example 252, Enantiomer 1 of N-{[7-(azetidin-1-yl)-8-benzyl-5,6,7,8-tetrahydronaphthalen-2-yl]methyl}-1-methyl-1H-imidazole-4-sulfonamide] | ≤ 10 |
| CC(=O)NC1CCc2ccc(CNS(=O)(=O)c3cn(C)cn3)cc2C1Cc1ccc(F)cc1 (centres unmarked) [Example 197] | ≤ 10000 |
| NC1CCc2ccc(OCCNS(=O)(=O)CC3CC3)cc2C1Cc1cccc(Cl)c1 (centres unmarked) [Example 288, N-{2-[7-Amino-8-(3-chloro-benzyl)-5,6,7,8-tetrahydro-naphthalen-2-yloxy]-ethyl}-C-cyclopropyl-methanesulfonamide hydrochloride] | ≤ 10 |
| CCCS(=O)(=O)N1CC(COc2ccc3c(c2)C(Cc2cccc(Cl)c2)C(N)CC3)C1 (centres unmarked) [Example 286, 1-(3-Chloro-benzyl)-7-[1-(propane-1-sulfonyl)-azetidin-3-ylmethoxy]-1,2,3,4-tetrahydronaphthalen-2-ylamine hydrochloride] | ≤ 10000 |
| Cn1cnc(S(=O)(=O)NCCOc2ccc3c(c2)C(Cc2cccc(C(F)(F)F)c2)C(N)CC3)c1 (centres unmarked) [Example 165, 1-Methyl-1H-imidazole-4-sulfonic acid {2-[7-amino-8-(3-trifluoromethyl-benzyl)-5,6,7,8-tetrahydro-naphthalen-2-yloxy]-ethyl}-amide hydrochloride] | ≤ 10 |
